In ChEMBL document CHEMBL5678818, “Discovery of potent SOS1 inhibitors that block RAS activation via disruption of the RAS-SOS1 interaction” (Proc Natl Acad Sci U S A, 2019):

Legend:
[1] = molecular target: T1, Serine/threonine-protein kinase Sgk3 (Homo sapiens) (UniProt Q96BR1); test: Inhibition of SGK3 (unknown origin) assessed as residual activity at 100 nM by KINOMEscan analysis relative to control
T1 sequence (whole entry): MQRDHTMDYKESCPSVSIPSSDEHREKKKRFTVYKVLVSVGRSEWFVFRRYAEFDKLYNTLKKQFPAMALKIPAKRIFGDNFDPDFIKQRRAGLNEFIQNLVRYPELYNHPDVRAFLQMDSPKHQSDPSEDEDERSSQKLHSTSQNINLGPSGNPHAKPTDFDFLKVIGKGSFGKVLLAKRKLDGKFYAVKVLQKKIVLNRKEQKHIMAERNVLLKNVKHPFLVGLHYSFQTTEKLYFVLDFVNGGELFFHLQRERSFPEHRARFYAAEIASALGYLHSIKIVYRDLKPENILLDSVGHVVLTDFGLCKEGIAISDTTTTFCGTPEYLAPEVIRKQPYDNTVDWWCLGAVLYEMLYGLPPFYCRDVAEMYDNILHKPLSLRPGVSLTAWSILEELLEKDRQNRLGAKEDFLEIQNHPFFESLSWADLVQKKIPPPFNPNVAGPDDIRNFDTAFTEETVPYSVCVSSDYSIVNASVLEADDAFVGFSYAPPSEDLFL

[2] = molecular target: Protein-tyrosine kinase 2-beta (Homo sapiens) (UniProt Q14289); test: Inhibition of PYK2 (unknown origin) assessed as residual activity at 100 nM by KINOMEscan analysis relative to control
Sequence of Protein-tyrosine kinase 2-beta (Homo sapiens) (Q14289 whole entry, looked up): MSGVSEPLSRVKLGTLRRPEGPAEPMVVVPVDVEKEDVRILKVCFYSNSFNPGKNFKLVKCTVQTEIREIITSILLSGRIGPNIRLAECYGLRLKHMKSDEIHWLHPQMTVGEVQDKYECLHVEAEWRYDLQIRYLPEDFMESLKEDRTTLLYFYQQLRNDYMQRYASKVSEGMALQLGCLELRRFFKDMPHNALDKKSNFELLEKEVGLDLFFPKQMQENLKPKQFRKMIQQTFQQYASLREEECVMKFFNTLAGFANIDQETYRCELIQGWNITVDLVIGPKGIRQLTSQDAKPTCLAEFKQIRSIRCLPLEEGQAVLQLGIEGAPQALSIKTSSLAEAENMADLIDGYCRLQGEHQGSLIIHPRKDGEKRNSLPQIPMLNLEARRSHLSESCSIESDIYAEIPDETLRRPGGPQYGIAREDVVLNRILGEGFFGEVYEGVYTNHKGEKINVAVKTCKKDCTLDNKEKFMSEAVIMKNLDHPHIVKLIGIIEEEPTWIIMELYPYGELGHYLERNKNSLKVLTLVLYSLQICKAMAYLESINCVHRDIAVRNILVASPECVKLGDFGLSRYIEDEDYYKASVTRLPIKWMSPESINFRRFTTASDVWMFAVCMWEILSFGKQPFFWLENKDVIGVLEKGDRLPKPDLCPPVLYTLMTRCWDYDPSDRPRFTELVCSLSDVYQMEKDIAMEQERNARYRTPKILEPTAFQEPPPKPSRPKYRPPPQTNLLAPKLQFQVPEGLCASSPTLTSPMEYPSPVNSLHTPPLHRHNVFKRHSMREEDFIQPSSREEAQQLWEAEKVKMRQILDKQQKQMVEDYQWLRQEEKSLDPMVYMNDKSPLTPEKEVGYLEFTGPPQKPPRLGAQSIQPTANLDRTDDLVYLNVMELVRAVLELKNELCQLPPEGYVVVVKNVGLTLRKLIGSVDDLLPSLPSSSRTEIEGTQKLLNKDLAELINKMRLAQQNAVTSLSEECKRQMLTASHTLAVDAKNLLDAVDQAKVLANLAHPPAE

[3] = molecular target: Serine/threonine-protein kinase 26 (Homo sapiens) (UniProt Q9P289); test: Inhibition of MST4 (unknown origin) assessed as residual activity at 100 nM by KINOMEscan analysis relative to control
Sequence of Serine/threonine-protein kinase 26 (Homo sapiens) (Q9P289 2-416 limits assumed): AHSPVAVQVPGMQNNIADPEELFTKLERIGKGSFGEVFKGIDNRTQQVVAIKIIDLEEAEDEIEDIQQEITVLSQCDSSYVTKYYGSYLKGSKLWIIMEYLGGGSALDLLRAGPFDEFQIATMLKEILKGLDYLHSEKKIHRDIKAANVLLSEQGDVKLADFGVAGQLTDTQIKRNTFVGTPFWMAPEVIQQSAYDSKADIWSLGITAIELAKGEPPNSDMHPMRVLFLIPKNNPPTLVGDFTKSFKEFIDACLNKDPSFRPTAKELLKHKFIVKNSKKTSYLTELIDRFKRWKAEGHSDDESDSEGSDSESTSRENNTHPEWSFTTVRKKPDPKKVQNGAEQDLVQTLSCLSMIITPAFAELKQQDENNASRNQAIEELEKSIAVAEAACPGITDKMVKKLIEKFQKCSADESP

Homo sapiens = species: Homo sapiens; test: Inhibition of C-terminal RPS6KA4 kinetic domain 2 (unknown origin) assessed as residual activity at 100 nM by KINOMEscan analysis relative to control
[4] = molecular target: T2, Receptor-interacting serine/threonine-protein kinase 1 (Homo sapiens) (UniProt Q13546); test: Inhibition of RIPK1 (unknown origin) assessed as residual activity at 100 nM by KINOMEscan analysis relative to control
T2 sequence (whole entry): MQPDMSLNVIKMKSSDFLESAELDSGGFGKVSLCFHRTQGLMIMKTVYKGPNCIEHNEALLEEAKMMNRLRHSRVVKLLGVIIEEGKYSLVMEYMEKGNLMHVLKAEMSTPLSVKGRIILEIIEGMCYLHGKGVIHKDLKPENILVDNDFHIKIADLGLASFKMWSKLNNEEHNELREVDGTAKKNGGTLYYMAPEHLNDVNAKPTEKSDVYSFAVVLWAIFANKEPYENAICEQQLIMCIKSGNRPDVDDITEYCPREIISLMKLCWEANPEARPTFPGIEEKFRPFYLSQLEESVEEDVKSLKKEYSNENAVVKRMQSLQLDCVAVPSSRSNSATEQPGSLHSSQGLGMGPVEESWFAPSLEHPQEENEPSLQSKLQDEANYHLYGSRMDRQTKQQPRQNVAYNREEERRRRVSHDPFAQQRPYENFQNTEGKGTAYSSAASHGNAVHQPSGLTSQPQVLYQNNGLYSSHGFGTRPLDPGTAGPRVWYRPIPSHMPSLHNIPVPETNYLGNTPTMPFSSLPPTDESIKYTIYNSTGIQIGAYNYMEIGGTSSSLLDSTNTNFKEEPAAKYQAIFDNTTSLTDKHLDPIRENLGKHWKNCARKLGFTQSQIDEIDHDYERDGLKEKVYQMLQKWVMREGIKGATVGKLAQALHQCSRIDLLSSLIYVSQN

[5] = tested on: Epidermal growth factor receptor (Homo sapiens), P00533 [UNDEFINED MUTATION]; test: Inhibition of EGFR S752-I759del mutant (unknown origin) assessed as residual activity at 100 nM by KINOMEscan analysis relative to control
Sequence of Epidermal growth factor receptor (Homo sapiens), P00533 [UNDEFINED MUTATION] (P00533 whole entry, looked up, stated change not applied): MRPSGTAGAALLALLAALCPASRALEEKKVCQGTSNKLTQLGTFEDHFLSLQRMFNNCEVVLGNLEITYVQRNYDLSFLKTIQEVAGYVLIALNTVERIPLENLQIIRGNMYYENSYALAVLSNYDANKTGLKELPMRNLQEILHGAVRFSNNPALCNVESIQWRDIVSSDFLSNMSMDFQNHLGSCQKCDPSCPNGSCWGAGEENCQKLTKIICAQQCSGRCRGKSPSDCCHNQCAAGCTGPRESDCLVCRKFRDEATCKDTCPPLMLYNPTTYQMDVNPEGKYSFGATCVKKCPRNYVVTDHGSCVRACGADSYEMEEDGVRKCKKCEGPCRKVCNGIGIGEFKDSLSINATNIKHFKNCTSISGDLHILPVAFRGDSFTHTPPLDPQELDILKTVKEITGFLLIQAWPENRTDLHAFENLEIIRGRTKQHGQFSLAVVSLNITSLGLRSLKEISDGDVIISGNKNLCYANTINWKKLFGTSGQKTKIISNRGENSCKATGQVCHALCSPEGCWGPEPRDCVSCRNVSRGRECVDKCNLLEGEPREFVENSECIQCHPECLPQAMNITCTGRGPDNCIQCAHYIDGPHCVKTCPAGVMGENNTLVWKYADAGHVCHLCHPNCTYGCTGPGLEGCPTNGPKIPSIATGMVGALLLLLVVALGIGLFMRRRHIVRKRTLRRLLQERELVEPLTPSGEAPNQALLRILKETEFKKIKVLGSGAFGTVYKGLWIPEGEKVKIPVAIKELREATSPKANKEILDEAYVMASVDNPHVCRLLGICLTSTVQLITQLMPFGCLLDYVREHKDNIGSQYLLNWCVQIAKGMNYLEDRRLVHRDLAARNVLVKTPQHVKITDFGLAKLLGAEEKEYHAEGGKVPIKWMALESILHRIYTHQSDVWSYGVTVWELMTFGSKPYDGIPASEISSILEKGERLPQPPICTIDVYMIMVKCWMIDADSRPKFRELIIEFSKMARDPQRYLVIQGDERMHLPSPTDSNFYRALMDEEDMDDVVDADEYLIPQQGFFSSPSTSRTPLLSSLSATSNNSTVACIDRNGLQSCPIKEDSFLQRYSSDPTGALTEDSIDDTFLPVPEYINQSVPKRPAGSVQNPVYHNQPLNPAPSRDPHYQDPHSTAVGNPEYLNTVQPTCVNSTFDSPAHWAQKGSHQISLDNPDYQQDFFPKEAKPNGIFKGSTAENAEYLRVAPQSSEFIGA

[6] = tested on: Epidermal growth factor receptor (Homo sapiens), P00533 [UNDEFINED MUTATION]; test: Inhibition of EGFR E746-A750del mutant (unknown origin) assessed as residual activity at 100 nM by KINOMEscan analysis relative to control
[7] = molecular target: Serine/threonine-protein kinase OSR1 (Homo sapiens) (UniProt O95747); test: Inhibition of OSR1 (unknown origin) assessed as residual activity at 100 nM by KINOMEscan analysis relative to control
Sequence of Serine/threonine-protein kinase OSR1 (Homo sapiens) (O95747 whole entry, looked up): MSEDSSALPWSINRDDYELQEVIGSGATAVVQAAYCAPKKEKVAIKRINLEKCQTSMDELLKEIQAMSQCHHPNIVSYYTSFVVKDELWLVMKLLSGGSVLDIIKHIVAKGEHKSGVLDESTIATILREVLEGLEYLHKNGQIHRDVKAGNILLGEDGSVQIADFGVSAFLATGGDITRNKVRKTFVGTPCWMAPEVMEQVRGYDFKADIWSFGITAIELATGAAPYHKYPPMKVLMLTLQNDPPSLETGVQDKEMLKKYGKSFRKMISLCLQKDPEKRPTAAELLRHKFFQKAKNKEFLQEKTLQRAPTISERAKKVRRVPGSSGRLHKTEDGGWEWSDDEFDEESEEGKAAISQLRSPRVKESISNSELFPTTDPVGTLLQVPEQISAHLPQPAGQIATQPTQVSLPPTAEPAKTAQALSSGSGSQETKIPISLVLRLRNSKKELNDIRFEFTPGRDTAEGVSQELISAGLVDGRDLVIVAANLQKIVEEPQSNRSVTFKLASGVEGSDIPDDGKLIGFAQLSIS

[8] = molecular target: Mitogen-activated protein kinase 7 (Homo sapiens) (UniProt Q13164); test: Inhibition of ERK5 (unknown origin) assessed as residual activity at 100 nM by KINOMEscan analysis relative to control
Sequence of Mitogen-activated protein kinase 7 (Homo sapiens) (Q13164 2-816 limits assumed): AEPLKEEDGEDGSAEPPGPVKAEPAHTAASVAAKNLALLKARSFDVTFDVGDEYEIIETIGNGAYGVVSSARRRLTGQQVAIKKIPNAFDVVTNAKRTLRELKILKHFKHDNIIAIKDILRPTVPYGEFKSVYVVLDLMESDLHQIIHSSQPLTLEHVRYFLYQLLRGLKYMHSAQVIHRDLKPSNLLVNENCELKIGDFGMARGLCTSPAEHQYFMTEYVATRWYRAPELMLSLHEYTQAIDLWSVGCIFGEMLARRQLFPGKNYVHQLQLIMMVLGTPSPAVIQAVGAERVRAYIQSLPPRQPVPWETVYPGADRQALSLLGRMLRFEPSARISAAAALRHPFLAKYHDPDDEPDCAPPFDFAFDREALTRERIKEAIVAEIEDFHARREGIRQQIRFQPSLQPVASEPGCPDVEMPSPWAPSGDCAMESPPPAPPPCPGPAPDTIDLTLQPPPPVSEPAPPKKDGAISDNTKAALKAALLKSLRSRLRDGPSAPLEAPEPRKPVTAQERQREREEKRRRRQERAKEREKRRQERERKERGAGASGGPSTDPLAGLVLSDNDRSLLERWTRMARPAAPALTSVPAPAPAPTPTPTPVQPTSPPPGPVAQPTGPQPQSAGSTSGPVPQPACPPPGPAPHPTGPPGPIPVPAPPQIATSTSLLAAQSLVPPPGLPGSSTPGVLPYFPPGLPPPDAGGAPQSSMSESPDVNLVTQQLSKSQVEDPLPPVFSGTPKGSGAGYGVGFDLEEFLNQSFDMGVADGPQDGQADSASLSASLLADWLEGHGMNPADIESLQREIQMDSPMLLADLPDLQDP

[9] = molecular target: T3, Phosphatidylinositol 5-phosphate 4-kinase type-2 beta (Homo sapiens) (UniProt P78356); test: Inhibition of PIP5K2B (unknown origin) assessed as residual activity at 100 nM by KINOMEscan analysis relative to control
T3 sequence (whole entry): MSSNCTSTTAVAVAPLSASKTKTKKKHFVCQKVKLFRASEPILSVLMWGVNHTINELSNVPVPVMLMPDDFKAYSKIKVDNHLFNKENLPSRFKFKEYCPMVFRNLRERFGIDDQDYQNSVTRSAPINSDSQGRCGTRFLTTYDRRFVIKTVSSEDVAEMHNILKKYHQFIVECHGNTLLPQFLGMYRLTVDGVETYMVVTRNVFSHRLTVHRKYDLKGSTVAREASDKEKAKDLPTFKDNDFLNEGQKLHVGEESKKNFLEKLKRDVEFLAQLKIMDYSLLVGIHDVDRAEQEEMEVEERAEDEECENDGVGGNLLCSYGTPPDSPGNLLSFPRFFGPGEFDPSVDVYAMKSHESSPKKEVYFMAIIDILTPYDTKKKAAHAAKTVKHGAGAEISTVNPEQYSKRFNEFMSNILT

[10] = molecular target: Cyclin-dependent kinase 7 (Homo sapiens) (UniProt P50613); test: Inhibition of CDK7 (unknown origin) assessed as residual activity at 100 nM by KINOMEscan analysis relative to control
Sequence of Cyclin-dependent kinase 7 (Homo sapiens) (P50613 whole entry): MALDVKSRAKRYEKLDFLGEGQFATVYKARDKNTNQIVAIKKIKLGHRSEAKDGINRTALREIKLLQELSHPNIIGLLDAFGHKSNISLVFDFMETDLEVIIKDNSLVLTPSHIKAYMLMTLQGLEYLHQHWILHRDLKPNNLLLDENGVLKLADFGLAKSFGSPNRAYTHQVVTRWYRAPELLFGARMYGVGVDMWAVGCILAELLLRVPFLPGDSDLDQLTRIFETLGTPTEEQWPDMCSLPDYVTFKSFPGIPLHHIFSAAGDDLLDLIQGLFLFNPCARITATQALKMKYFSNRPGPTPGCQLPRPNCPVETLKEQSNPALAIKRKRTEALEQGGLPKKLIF

[11] = molecular target: Maternal embryonic leucine zipper kinase (Homo sapiens) (UniProt Q14680); test: Inhibition of MELK (unknown origin) assessed as residual activity at 100 nM by KINOMEscan analysis relative to control
Sequence of Maternal embryonic leucine zipper kinase (Homo sapiens) (Q14680 whole entry, looked up): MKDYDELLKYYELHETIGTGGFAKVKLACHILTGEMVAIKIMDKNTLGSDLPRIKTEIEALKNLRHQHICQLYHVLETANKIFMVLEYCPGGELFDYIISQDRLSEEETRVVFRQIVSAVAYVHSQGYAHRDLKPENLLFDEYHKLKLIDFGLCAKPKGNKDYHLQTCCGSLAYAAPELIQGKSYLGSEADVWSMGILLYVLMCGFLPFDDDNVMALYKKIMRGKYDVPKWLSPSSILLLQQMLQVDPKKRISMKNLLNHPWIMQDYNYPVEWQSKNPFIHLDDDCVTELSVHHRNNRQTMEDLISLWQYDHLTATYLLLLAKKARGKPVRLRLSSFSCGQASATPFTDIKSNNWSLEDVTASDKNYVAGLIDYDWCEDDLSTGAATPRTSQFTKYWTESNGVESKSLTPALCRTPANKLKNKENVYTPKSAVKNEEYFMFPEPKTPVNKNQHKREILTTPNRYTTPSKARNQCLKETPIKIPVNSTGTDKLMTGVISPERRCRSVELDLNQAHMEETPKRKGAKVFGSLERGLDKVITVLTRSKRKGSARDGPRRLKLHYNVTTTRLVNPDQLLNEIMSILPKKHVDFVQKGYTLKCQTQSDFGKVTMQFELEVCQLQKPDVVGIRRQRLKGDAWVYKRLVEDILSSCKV

[12] = molecular target: Serine/threonine-protein kinase PLK3 (Homo sapiens) (UniProt Q9H4B4); test: Inhibition of PLK3 (unknown origin) assessed as residual activity at 100 nM by KINOMEscan analysis relative to control

With `COc1cc2ncnc(N[C@H](C)c3cccc4ccccc34)c2cc1OC` the Activity [1] was 100%, the Activity [2] was 100% and the Activity [3] was 88%. For the same compound, the Activity (Homo sapiens) was 87%, the Activity [4] was 23% and the Activity [5] was 93%. For the same compound, the Activity [6] was 88%, the Activity [7] was 89% and the Activity [8] was 84%. It also gave an Activity [9] of 91%, an Activity [10] of 88% and an Activity [11] of 73%. The Activity [12] was 83%.
